{"source": "patent US9708311B2", "about": "“Benzimidazole derivatives as EP4 antagonists” (BAYER PHARMA AKTIENGESELLSCHAFT, priority 2012, dated 2017)", "data": [{"biological_target": "human EP4 receptor (Homo sapiens (Human), UniProt P35408)", "sequence (P35408 whole entry)": "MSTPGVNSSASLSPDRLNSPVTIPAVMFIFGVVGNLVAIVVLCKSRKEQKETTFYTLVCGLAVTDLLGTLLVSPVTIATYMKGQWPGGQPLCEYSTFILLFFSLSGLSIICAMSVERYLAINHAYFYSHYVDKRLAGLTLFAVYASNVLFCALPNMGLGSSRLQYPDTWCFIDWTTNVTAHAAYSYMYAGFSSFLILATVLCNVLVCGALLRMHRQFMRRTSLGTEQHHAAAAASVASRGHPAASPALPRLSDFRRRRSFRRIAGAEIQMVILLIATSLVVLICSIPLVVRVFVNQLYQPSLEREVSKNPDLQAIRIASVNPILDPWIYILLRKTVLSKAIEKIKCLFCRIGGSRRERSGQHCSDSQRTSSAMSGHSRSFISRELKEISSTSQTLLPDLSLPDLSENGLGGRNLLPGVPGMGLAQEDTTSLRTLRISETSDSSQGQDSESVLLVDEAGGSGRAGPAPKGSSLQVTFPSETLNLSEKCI", "assay": "Test for antagonism of the human EP4 receptor signal (cAMP HTRF)", "format": "cell-based", "details": "cells expressing hEP4, PGE2 at EC80 (0.4 nM), cAMP TR-FRET; read-out: Antagonism hEP4 IC50", "excerpt": "The binding of the agonist prostaglandin E2 (PGE2) to the EP4 subtype of human hPGE2-R (hEP4-R) induces the activation of membrane-bound adenylate cyclases and thus the formation of cAMP. In the presence of the phosphodiesterase inhibitor IBMX, this cAMP accumulates intracellularly and is employed in a competitive detection procedure after cell lysis. In this procedure, it competes with a fluorescence-labelled cAMP (cAMP-d2) for binding to an Eu cryptate-labelled anti-cAMP antibody. In the absence of cellular cAMP, a complex is formed between the Eu cryptate-labelled anti-cAMP antibody and the cAMP-d2 molecule, which after excitation at 337 nm makes possible an energy transfer based on FRET (fluorescence resonance energy transfer) to the cAMP-d2 tracer and leads to a long-lasting fluorescence signal (emission at 665 and 620 nm). This signal is time-resolved, i.e. measured in a suitable measuring apparatus after decay of the background fluorescence (time resolved; TR-FRET). The wave ratio determination (emission 665 nm/emission 620 nm*10000) moreover makes it possible to standardize individual measurement differences in the added amounts of the detection reagents.\nBy means of prostaglandin E2 administration and increase in the intracellular cAMP, a lowering of the FRET signal occurs, which in the case of an antagonistic substance action increases again.\nA further 20 min at room temperature later, the cell lysate is measured according to the manufacturer's instructions in a TR-FRET-suitable measuring apparatus (compare cAMP HTRF assay kit: Cisbio International 62AM6PEJ high range)", "units": {"IC50": "nM"}, "values": [{"smiles": "CCn1c2ccccc2c2cc(-c3nc4cc(-c5noc(=O)[nH]5)ccc4n3CCOC)ccc21", "note": "[Example 46, 3-[2-(9-Ethyl-9H-carbazol-3-yl)-1-(2-methoxyethyl)-1H-benzimidazol-5-yl]-1,2,4-oxadiazol-5(4H)-one]", "IC50": 12.4}, {"smiles": "CCOC(=O)c1ccc2c(c1)nc(-c1ccc3c(c1)c1ccccc1n3CC)n2CC1COC1", "note": "[Example 122, Ethyl 2-(9-ethyl-9H-carbazol-3-yl)-1-(oxetan-3-ylmethyl)-1H-benzimidazole-5-carboxylate]", "IC50": 464}, {"smiles": "CCn1c2ccccc2c2cc(-c3nc4cc(C(=O)NS(=O)(=O)Cc5c(C)cccc5Cl)ccc4n3CCOC)ccc21", "note": "[Example 67, N-[(2-Chloro-6-methylbenzyl)sulphonyl]-2-(9-ethyl-9H-carbazol-3-yl)-1-(2-methoxy-ethyl)-1H-benzimidazole-5-carboxamide]", "IC50": 36.9}, {"smiles": "CCn1c2ccccc2c2cc(-c3nc4cc(C(=O)NS(=O)(=O)CCc5ccc(C(F)(F)F)cc5)ccc4n3CCOC)ccc21", "note": "[Example 20, 2-(9-Ethyl-9H-carbazol-3-yl)-1-(2-methoxyethyl)-N-({2-[4-(trifluoromethyl)phenyl]ethyl}-sulphonyl)-1H-benzimidazole-5-carboxamide]", "IC50": 683}, {"smiles": "CCn1c2ccccc2c2cc(-c3nc4cc(C(=O)O)ccc4n3C)ccc21", "note": "[Example 94, 2-(9-Ethyl-9H-carbazol-3-y1)-1-methyl-1 H-benzimidazole-5-carboxylic acid]", "IC50": 195}, {"smiles": "CCn1c2ccccc2c2nc(-c3nc4cc(C(=O)O)ccc4n3CCOC)ccc21", "note": "[Example 42, 2-(5-Ethyl-5H-pyrido[3,2-b]indol-2-yl)-1-(2-methoxyethyl)-1H-benzimidazole-5-carboxylic acid]", "IC50": 239}, {"smiles": "CCn1c(-c2ccc3c(c2)c2ccccc2n3CC)nc2cc(C(=O)OC)ccc21", "note": "[Example 95, Methyl 1-ethyl-2-(9-ethyl-9H-carbazol-3-yl)-1H-benzimidazole-5-carboxylate]", "IC50": 1030}, {"smiles": "CCn1c2ccccc2c2cc(-c3nc4cc(C(=O)O)ccc4n3C[C@@H](O)COC)ccc21", "note": "[Example 134, 2-(9-Ethyl-9H-carbazol-3-yl)-1-[(2R)-2-hydroxy-3-methoxypropyl]-1H-benzimidazole-5-carboxylic acid]", "IC50": 136}, {"smiles": "CCn1c2ccccc2c2cc(-c3nc4cc(C(=O)O)ccc4n3C[C@H](O)CO)ccc21", "note": "[Example 138, 1-[(2S)-2,3-Dihydroxypropyl]-2-(9-ethyl-9H-carbazol-3-yl)-1H-benzimidazole-5-carboxylic acid]", "IC50": 567}, {"smiles": "CCOC(=O)c1ccc2c(c1)nc(-c1ccc3c(c1)c1ccccc1n3CCOC)n2CCOC", "note": "[Example 97, Ethyl 1-(2-methoxyethyl)-2-[9-(2-methoxyethyl)-9H-carbazol-3-yl]-1H-benzimidazole-5-carboxylate]", "IC50": 412}, {"smiles": "CCn1c2ccccc2c2cc(-c3nc4cc(C(=O)NS(=O)(=O)CCc5ccccc5Cl)ccc4n3CCOC)ccc21", "note": "[Example 61, N-{[2-(2-Chlorophenyl)ethyl]sulphonyl}-2-(9-ethyl-9H-carbazol-3-yl)-1-(2-methoxyethyl)-1H-benzimidazole-5-carboxamide]", "IC50": 167}, {"smiles": "CCn1c2ccccc2c2cc(-c3nc4cc(C(=O)OC)ccc4n3CC3CC3)ccc21", "note": "[Example 5, Methyl 1-(cyclopropylmethyl)-2-(9-ethyl-9H-carbazol-3-yl)-1H-benzimidazole-5-carboxylate]", "IC50": 404}, {"smiles": "CCn1c2ccccc2c2cc(-c3nc4c(F)c(C(=O)O)ccc4n3CCOC)ccc21", "note": "[Example 114, 2-(9-Ethyl-9H-carbazol-3-yl)-4-fluoro-1-(2-methoxyethyl)-1H-benzimidazole-5-carboxylic acid]", "IC50": 6.42}, {"smiles": "COCCn1c(-c2ccc3c(c2)c2ccccc2n3CCOC)nc2cc(C(=O)O)ccc21", "note": "[Example 98, 1-(2-Methoxyethyl)-2-[9-(2-methoxyethyl)-9H-carbazol-3-yl]-1H-benzimidazole-5-carboxylic acid]", "IC50": 112}, {"smiles": "CCn1c2ccccc2c2cc(-c3nc4cc(C(=O)O)ccc4n3CCC3CC3)ccc21", "note": "[Example 117, 1-(2-Cyclopropylethyl)-2-(9-ethyl-9H-carbazol-3-yl)-1H-benzimidazole-5-carboxylic acid]", "IC50": 22.1}, {"smiles": "CCn1c2ccccc2c2cc(-c3nc4cc(C(=O)O)ccc4n3CCN3CCOCC3)ccc21", "note": "[Example 70, 2-(9-Ethyl-9H-carbazol-3-yl)-1-[2-(morpholin-4-yl)ethyl]-1H-benzimidazole-5-carboxylic acid]", "IC50": 2460}, {"smiles": "CCn1c2ccccc2c2cc(-c3nc4cc(C(=O)NS(=O)(=O)Cc5ccccc5OC(F)(F)F)ccc4n3CCOC)ccc21", "note": "[Example 65, 2-(9-Ethyl-9H-carbazol-3-yl)-1-(2-methoxyethyl)-N-{[2-(trifluoromethoxy)benzyl]-sulphonyl}-1H-benzimidazole-5-carboxamide]", "IC50": 133}, {"smiles": "CCn1c2ccccc2c2cc(-c3nc4cc(C(=O)N(C)C)ccc4n3CC3CC3)ccc21", "note": "[Example 25, 1-(Cyclopropylmethyl)-2-(9-ethyl-9H-carbazol-3-yl)-N,N-dimethyl-1H-benzimidazole-5-carboxamide]", "IC50": 86.3}, {"smiles": "CCn1c2ccccc2c2cc(-c3nc4cc(C(=O)O)ccc4n3C[C@H](O)COC)ccc21", "note": "[Example 135, 2-(9-Ethyl-9H-carbazol-3-yl)-1-[(2S)-2-hydroxy-3-methoxypropyl]-1H-benzimidazole-5-carboxylic acid]", "IC50": 340}, {"smiles": "C=CCn1c(-c2ccc3c(c2)c2ccccc2n3CC)nc2cc(C(=O)NC)ccc21", "note": "[Example 88, 1-Allyl-2-(9-ethyl-9H-carbazol-3-yl)-N-methyl-1H-benzimidazole-5-carboxamide]", "IC50": 2100}, {"smiles": "CCn1c2ccccc2c2cc(-c3nc4cc(C(=O)NS(=O)(=O)Cc5c(Cl)cccc5Cl)ccc4n3CCOC)ccc21", "note": "[Example 60, N-[(2,6-Dichlorbenzyl)sulphonyl]-2-(9-ethyl-9H-carbazol-3-yl)-1-(2-methoxyethyl)-1H-benzimidazole-5-carboxamide]", "IC50": 19.8}, {"smiles": "CCOC(=O)c1ccc2c(c1)nc(-c1ccc3c(c1)c1ccccc1n3CC)n2C(C)C", "note": "[Example 92, Ethyl 2-(9-ethyl-9H-carbazol-3-yl)-1-isopropyl-1H-benzimidazole-5-carboxylate]", "IC50": 8000}, {"smiles": "CCCn1c2ccccc2c2cc(-c3nc4cc(C(=O)O)ccc4n3CCOC)ccc21", "note": "[Example 118, 1-(2-Methoxyethyl)-2-(9-propyl-9H-carbazol-3-yl)-1H-benzimidazole-5-carboxylic acid]", "IC50": 36.2}, {"smiles": "CCn1c2ccccc2c2cc(-c3nc4cc(C(=O)O)c(F)cc4n3CCOC)ccc21", "note": "[Example 113, 2-(9-Ethyl-9H-carbazol-3-yl)-6-fluoro-1-(2-methoxyethyl)-1H-benzimidazole-5-carboxylic acid]", "IC50": 59.5}, {"smiles": "CCn1c2ccccc2c2cc(-c3nc4cc(C(=O)NS(=O)(=O)c5ccc6ccccc6c5)ccc4n3CCOC)ccc21", "note": "[Example 51, 2-(9-Ethyl-9H-carbazol-3-yl)-1-(2-methoxyethyl)-N-(2-naphthylsulphonyl)-1H-benzimidazole-5-carboxamide]", "IC50": 95.5}, {"smiles": "CCn1c2ccccc2c2cc(-c3nc4cc(C(=O)NCCN5CCOCC5)ccc4n3CCOC)ccc21", "note": "[Example 78, 2-(9-Ethyl-9H-carbazol-3-yl)-1-(2-methoxyethyl)-N-[2-(morpholin-4-yl)ethyl]-1H-benzimidazole-5-carboxamide]", "IC50": 74.3}, {"smiles": "CCn1c2ccc(C)cc2c2cc(-c3nc4c(C)c(C(=O)O)ccc4n3CCOC)ccc21", "note": "[Example 141, 2-(9-Ethyl-6-methyl-9H-carbazol-3-yl)-1-(2-methoxyethyl)-4-methyl-1H-benzimidazole-5-carboxylic acid]", "IC50": 15.3}, {"smiles": "COCCn1c(-c2ccc3c(c2)c2ccccc2n3CC2CC2)nc2cc(C(=O)O)ccc21", "note": "[Example 36, 2-[9-(Cyclopropylmethyl)-9H-carbazol-3-yl]-1-(2-methoxyethyl)-1H-benzimidazole-5-carboxylic acid]", "IC50": 13.1}, {"smiles": "CCn1c2ccccc2c2cc(-c3nc4cc(C(=O)O)ccc4n3CCN(C)C)ccc21", "note": "[Example 72, 1-[2-(Dimethylamino)ethyl]-2-(9-ethyl-9H-carbazol-3-yl)-1H-benzimidazole-5-carboxylic acid]", "IC50": 82.5}, {"smiles": "Cn1c2ccccc2c2cc(-c3nc4cc(C(=O)O)ccc4n3CC3CC3)ccc21", "note": "[Example 34, 1-(Cyclopropylmethyl)-2-(9-methyl-9H-carbazol-3-yl)-1H-benzimidazole-5-carboxylic acid]", "IC50": 39.4}, {"smiles": "CCOC(=O)c1ccc2c(c1)nc(-c1ccc3c(c1)c1ccccc1n3CC)n2CCN1CCCC1", "note": "[Example 37, Ethyl 2-(9-ethyl-9H-carbazol-3-yl)-1-[2-(pyrrolidin-1-yl)ethyl]-1H-benzimidazole-5-carboxylate]", "IC50": 3780}, {"smiles": "CCn1c2ccccc2c2cc(-c3nc4cc(C(C)(C)O)ccc4n3CCOC)ccc21", "note": "[Example 101, 2-[2-(9-Ethyl-9H-carbazol-3-yl)-1-(2-methoxyethyl)-1H-benzimidazol-5-yl]propan-2-ol]", "IC50": 989}, {"smiles": "CCn1c2ccccc2c2cc(-c3nc4cc(C(N)=O)ccc4n3CCOC)ccc21", "note": "[Example 82, 2-(9-Ethyl-9H-carbazol-3-yl)-1-(2-methoxyethyl)-1H-benzimidazole-5-carboxamide]", "IC50": 134}]}]}
